Measured values: PMC6244206, “C-Terminal Residue of Ultrashort Peptides Impacts on Molecular Self-Assembly, Hydrogelation, and Interaction with Small-Molecule Drugs” (Scientific Reports, 2018)
Where “and” joins values, the source holds several entries; their conditions need not be identical. Equal values may be shown once.

Legend:
[1] = Small-molecule drug elution studies from peptide hydrogels; format: physicochemical; details: for Drug loading capacity in the peptide hydrogels: SMD 2 mM in peptide hydrogels 20 mM (peptides 1A and 1B)
Experimental: We compared the SMD elution profiles of the peptide hydrogels with the theoretical maximal amount of SMD that would diffuse from the hydrogel into the extra volume of PBS if there were no obstruction to diffusion.
The peptides were weighed out in 4 mL-vials, after which phosphate-buffered saline (PBS) containing the small-molecule drug (SMD final concentration = 2 mM) was added to a final volume of 0.30 mL each. The peptide-SMD-PBS mixtures were then shaken and sonicated for 10 s, after which the mixtures were allowed to anneal for 24 h. After that, 0.75 mL of fresh PBS was slowly added with a pipettor to the surface of the hydrogel so as not to disturb the surface of the gel. After 24 h at 25 °C, the PBS was carefully extracted with a pipettor for UV/vis analysis; a fresh volume (0.75 mL) of PBS was then replaced. This process was repeated as many times as the number of pre-determined elution samples. The extracted PBS was transferred into a cuvette (pathlength = 10 mm) and analysed with an Agilent 8543 UV/visible spectrometer for the presence of the SMD. […] A control experiment was set up for each peptide hydrogel, for which no drug was added. This is to account for absorption at the respective wavelengths due to eluted peptide. The elution profile of each peptide is compared with a theoretical maximal elution profile, viz. the theoretical maximal amount of SMD that would diffuse from the hydrogel into the extra volume of PBS if there were no obstruction to diffusion. The cumulative eluted percentage of SMD at each point is given by: [1 − (1/3.5)^n] 100%, where n is the number of elution.

[2] = cited from earlier work
[3] = Gelation studies of peptides in PBS; format: physicochemical
Experimental: Although peptide 1C could form a gel at 40 mg/mL (30 mM), the hydrogel formed was opaque and inhomogeneous; this is a big contrast to peptide 1A that forms a clear and transparent hydrogel (Fig. 3a). […] On the other hand, perhaps unsurprisingly, the tripeptides generally require higher concentrations to gel. Peptide 2A was previously reported to require a higher peptide concentration to gel than peptide 1A[50]. This has also been observed for peptide 2B, in which 30 mM is required (c.f. 15 mM for peptide 2A). […] As with peptide 1D, peptide 2D could not gel and only precipitated. […] When the hydrophilic components are dominant, the enhanced solubility reduces the driving forces for self-assembly. Consequently, hydrogelation is observed at markedly higher concentrations. Such a balance of hydrophilicity/hydrophobicity has been exploited (via enzymatic control) for the formulation of hydrogels[52],[53].
All peptides were prepared via fluoren-9-ylmethoxycarbonyl (Fmoc)-based solid phase peptide synthesis and purified via reversed-phase high performance liquid chromatography-mass spectrometry (HPLC-MS) on an Agilent 6130 Quadrupole LC/MS system. Peptide hydrogels were prepared by weighing out the appropriate peptide mass in 2 mL-vials. After the requisite volume of phosphate-buffered saline (PBS) was added, the peptide-water mixture was shaken and sonicated for 10 s. […]

[4] = Solubility of peptides in phosphate-buffered saline to form clear solutions; format: physicochemical; details: pH 7.4
Experimental: The peptides were prepared via standard solid-phase peptide synthesis. The purification of all peptides was straightforward, except for peptide 1D. […] As a result, it frequently precipitated on the reversed-phase column during HPLC (high performance liquid chromatography) purification with a gradient of acetonitrile/water, leading to poor yields (<10%). The solubilities of peptides 1 and 2 in phosphate-buffered saline (PBS; pH 7.4) to form clear solutions were then tested; peptides 1A and 2A were also assessed as references. […] As Table 1 indicates, the hexapeptides dissolve to a lower extent than the tripeptides. This is reflective of the greater propensity of the hexapeptides to self-assemble and aggregate due to their longer hydrophobic backbone. In addition, peptides with lysine and arginine dissolve to a greater extent due to their charged side chains at pH 7.4.

[5] = PBS; previously reported; cited from earlier work
Experimental: Although peptide 1C could form a gel at 40 mg/mL (30 mM), the hydrogel formed was opaque and inhomogeneous; this is a big contrast to peptide 1A that forms a clear and transparent hydrogel (Fig. 3a). […] This is a big contrast to peptides 1E and 2E, which were previously reported t ...

[6] = Rheological studies of the peptide hydrogels; format: physicochemical; details: hydrogels 40 mg/mL in PBS, oscillatory strain sweep, 6.28 rad/s, 25 °C, triplicates
Experimental: Viscoelastic properties of the hydrogels were assessed at 25 °C with an ARES-G2 rheometer (TA Instruments, Piscataway, NJ) in the 25.0 mm-diameter titanium parallel plate geometry and a gap distance of 0.8 mm. For oscillatory frequency sweep studies, the plate rotation was varied between 0.1–100 rad/s at a constant strain of 0.1%. For oscillatory strain sweep studies, the strain was varied between 0.001–100% at a constant frequency of 6.28 rad/s. Each experiment was carried out in triplicates. This procedure was also previously described by us[88].

[7] = Zeta potential measurements of peptide fibrils; format: physicochemical; details: in water, peptide 10 mM, 25 °C; mean of triplicate measurements
Experimental: The zeta potential of the peptide fibrils was measured with an Anton Paar Litesizer 500 Particle Sizer. An omega zeta potential cuvette was utilised for the measurements, which was kept at a constant temperature of 25 °C. Triplicate measurements of each peptide sample were made at concentrations of 10 mM in water.

Molecule | Drug loading capacity in the peptide hydrogels [1] | pKa [2] | Appearance of hydrogel at 40 mg/mL ([3]; 40 mg/mL in PBS) | Status of gel ([3]; phosphate-buffered saline, pH 7.4, at minimal gelation concentration) | Soluble peptide concentration [4] | Hydrogel formation with doxorubicin ([1]; doxorubicin 2 mM in PBS) | Encapsulated doxorubicin eluted from peptide hydrogel ([1]; doxorubicin 2 mM in peptide hydrogel 20 mM, PBS pH 7.4, 25 °C, repeated elutions with 0.75 mL PBS, UV/vis 480 nm, n = 3) | Hydrogel formation with methotrexate ([1]; methotrexate 2 mM in PBS) | Hydrogel formation with naltrexone ([1]; naltrexone 2 mM in PBS) | Gelation concentration [5] | Yield stress / strain at which the hydrogel breaks down [6] | Zeta potential [7]
CN(Cc1cnc2nc(N)nc(N)c2n1)c1ccc(C(=O)N[C@@H](CCC(=O)O)C(=O)O)cc1 [methotrexate, reference compound] | 0.89 mg/g |  |  |  |  |  |  |  |  |  |  | 
O=C1CC[C@@]2(O)[C@H]3Cc4ccc(O)c5c4[C@@]2(CCN3CC2CC2)[C@H]1O5 [naltrexone, reference compound] | 0.67 mg/g | ~ 8.1 |  |  |  |  |  |  |  |  |  | 
acetylated Leu-Ile-Val-Ala-Gly-Lys-NH2 [Peptide 1A] |  |  | transparent hydrogels | Clear, transparent | 3 mg/mL | formed stable hydrogels | 40% | could do so with methotrexate (with some coagulation within the hydrogel) | formed stable hydrogels | 10 mg/mL and 6 mM | 3% | +33.40 ± 0.17 mV
